# Laboratory results taken from US4469707A, “Method for treatment of senile dementia” (Astra Lakemedel Aktiebolag, priority 1983, dated 1984).
# “Also recorded” adds a separate entry of the source.
# How the values were obtained:
# [1] = system: physostigmine induced tremor; assay: Potentiation of physostigmine induced tremor; type: in vivo; conditions: mice; for Mean tremor score after pretreatment: score 0-2
# Experimental: (§1) Saline was administered as a blank. The tremor intensity was assessed visually for a 60 min period starting from the injection of oxotremorine and physostigmine respectively. The following rating scores were used:
# (§2) 1--moderate or discontinuous tremor of the head and forelimbs
# (§3) 2--strong tremor involving the whole body
# tremor = assay: Tremor caused by alaproclate per se; type: in vivo, mice; conditions: in words
# Experimental: Saline was administered as a blank. The tremor intensity was assessed visually for a 60 min period starting from the injection of oxotremorine and physostigmine respectively.
# [2] = system: oxotremorine induced tremor; assay: Potentiation of oxotremorine induced tremor; type: in vivo; conditions: mice; for Mean tremor score after pretreatment: score 0-2
# Experimental: as §1, §2, §3
smiles,measurement,setting,value
"CC(N)C(=O)OC(C)(C)Cc1ccc(Cl)cc1 (stereo not drawn) [Alaproclate, 2-(4-chloro-phenyl)-1,1-dimethylethyl-2-aminopropanoate]",Potentiation of physostigmine induced tremor,[1]; in words,able to enhance; also recorded: potentiates
same,Mean tremor score after pretreatment,"[1]; alaproclate 20 mg/kg i.p., 5 min after physostigmine 200 μg/kg s.c.","0,3"
same,Mean tremor score after pretreatment,"[1]; alaproclate 20 mg/kg i.p., 10 min after physostigmine 200 μg/kg s.c.","0,8"
same,Mean tremor score after pretreatment,"[1]; alaproclate 20 mg/kg i.p., 15 min after physostigmine 200 μg/kg s.c.","0,8"
same,Mean tremor score after pretreatment,"[1]; alaproclate 40 mg/kg i.p., 5 min after physostigmine 200 μg/kg s.c.","0,3"
same,Mean tremor score after pretreatment,"[1]; alaproclate 40 mg/kg i.p., 10 min after physostigmine 200 μg/kg s.c.","1,0"
same,Mean tremor score after pretreatment,"[1]; alaproclate 40 mg/kg i.p., 15 min after physostigmine 200 μg/kg s.c.","0,7"
same,Mean tremor score after pretreatment,"[1]; alaproclate 40 mg/kg i.p., 30 min after physostigmine 200 μg/kg s.c.","0,3"
same,Mean tremor score after pretreatment,"[1]; alaproclate 60 mg/kg i.p., 5 min after physostigmine 200 μg/kg s.c.","0,7"
same,Mean tremor score after pretreatment,"[1]; alaproclate 60 mg/kg i.p., 10 min after physostigmine 200 μg/kg s.c.","1,3"
same,Mean tremor score after pretreatment,"[1]; alaproclate 60 mg/kg i.p., 15 min after physostigmine 200 μg/kg s.c.","0,8"
same,Mean tremor score after pretreatment,"[1]; alaproclate 60 mg/kg i.p., 30 min after physostigmine 200 μg/kg s.c.","0,7"
same,Tremor caused by the compound per se,tremor,does not cause tremor
same,Potentiation of oxotremorine induced tremor,[2]; in words,able to enhance; also recorded: potentiates
same,Mean tremor score after pretreatment,"[2]; alaproclate 20 mg/kg i.p., 10 min after oxotremorine 100 μg/kg s.c.","0,7"
same,Mean tremor score after pretreatment,"[2]; alaproclate 20 mg/kg i.p., 15 min after oxotremorine 100 μg/kg s.c.","1,0"
same,Mean tremor score after pretreatment,"[2]; alaproclate 20 mg/kg i.p., 30 min after oxotremorine 100 μg/kg s.c.","0,8"
same,Mean tremor score after pretreatment,"[2]; alaproclate 40 mg/kg i.p., 5 min after oxotremorine 100 μg/kg s.c.","0,3"
same,Mean tremor score after pretreatment,"[2]; alaproclate 40 mg/kg i.p., 10 min after oxotremorine 100 μg/kg s.c.","1,0"
same,Mean tremor score after pretreatment,"[2]; alaproclate 40 mg/kg i.p., 15 min after oxotremorine 100 μg/kg s.c.","1,3"
same,Mean tremor score after pretreatment,"[2]; alaproclate 40 mg/kg i.p., 30 min after oxotremorine 100 μg/kg s.c.","1,2"
same,Mean tremor score after pretreatment,"[2]; alaproclate 40 mg/kg i.p., 60 min after oxotremorine 100 μg/kg s.c.","0,5"
same,Mean tremor score after pretreatment,"[2]; alaproclate 60 mg/kg i.p., 5 min after oxotremorine 100 μg/kg s.c.","0,1"
same,Mean tremor score after pretreatment,"[2]; alaproclate 60 mg/kg i.p., 10 min after oxotremorine 100 μg/kg s.c.","1,0"
same,Mean tremor score after pretreatment,"[2]; alaproclate 60 mg/kg i.p., 15 min after oxotremorine 100 μg/kg s.c.","1,5"
same,Mean tremor score after pretreatment,"[2]; alaproclate 60 mg/kg i.p., 30 min after oxotremorine 100 μg/kg s.c.","1,6"
same,Mean tremor score after pretreatment,"[2]; alaproclate 60 mg/kg i.p., 60 min after oxotremorine 100 μg/kg s.c.","1,0"
